“Also recorded” adds a separate entry of the source.
Experiments:
[1] = molecular target: Class I alpha isoform of phosphatidylinositol 3-kinase (PI3K-α) (Homo sapiens, UniProt P42336); test: biochemical inhibition of PI3K-α
[2] = tested on: other Class I PI3Ks, including the β, δ, and γ isoforms; test: biochemical inhibition of other Class I PI3Ks; settings: δ, and γ isoforms versus PI3K-α
[3] = tested on: tumor cells bearing mutant p110a; test: potency in tumor cells, mutant versus wild-type p110a; type: cell-based
[4] = tested on: PIK3CA-mutant breast cancer cell lines; test: proliferation and apoptosis in PIK3CA-mutant breast cancer cell lines; type: cell-based; settings: nonclinical studies
mutant p110a = test: degradation of mutant p110a; type: cell-based; settings: nonclinical studies
Excerpt: Without being bound by any particular theory, GDC-0077 appears to exert its activity by binding to the adenosine binding site of p110a, thereby inhibiting the phosphorylation of membrane-bound phosphatidylinositol 4,5-bisphosphate (PIP2) to phosphatidylinositol 3,4,5-trisphophate (PIP3). This inhibition decreases downstream activation of pathway effectors including Akt and S6RP, resulting in decreased cellular proliferation, metabolism, and angiogenesis.

[5] = tested on: human breast cancer xenograft models harboring PIK3CA mutations; test: tumor growth in breast cancer xenograft models; type: in vivo; settings: nonclinical studies
pAkt, pPRAS40, pS6RP = test: downstream PI3K pathway markers; settings: nonclinical studies
[6] = tested on: patients with measurable disease; test: clinical study of single agent GDC-0077, RECIST v1.1 response; type: in vivo, human; settings: among 20 patients
Excerpt: In one study using single agent administration of GDC-0077, among 20 patients with measurable disease treated with a 6-mg, 9-mg, or 12-mg QD starting dose of GDC-0077 as a single agent, 5 patients (25%) achieved PRs, while 9 patients (45%) achieved clinical benefit (defined as the percentage of patients achieving confirmed Response Evaluation Criteria in Solid Tumors, Version 1.1 [RECIST v1.1]-defined CR, PR, and/or SD [non-complete response/non-progressive disease for patients with non-measurable disease at baseline] for 24 weeks). Further, 14 of the 20 patients were enrolled at the 6-mg or 9-mg QD starting dose, and 3 patients had received prior treatment with a CDK4/6i.

[7] = tested on: ESR1 wildtype T-47D (PIK3CA.H1047R) cells; test: CyQUANT relative viability, T-47D wildtype ESR1; type: cell-based; settings: 300 nM GDC-9545, 80 nM GDC-0077, alone or combined; 0.1 nmol/L E2; 6 to 8 days
Description: Combination of GDC-9545 and GDC-007 was investigated and compared to efficacy of each single agent and to an AI+palbociclib control. ESR1 wildtype MCF-7 (PIK3CA.E545K) and T-47D (PIK3CA.H1047R) cells, and engineered ESR1 mutant cells [MCF-7.ER.Y537S, T-47D.ER.D538G] were grown under standard cell culture conditions in RPMI media with 10% fetal bovine serum. One day prior to the addition of drugs, cells were seeded in 384-well plates in phenol red-free RPMI with 10% charcoal-stripped fetal bovine serum in order to deprive the cells of hormones. Single agent 300 nM GDC-9545, 80 nM GDC-0077, 125 nM palbociclib or a combination thereof, were tested in quadruplicate in the presence of 0.1 nmol/L estradiol (E2) during a 6-day or 8-day incubation period. The absence of E2 in the media (−E2) serves to mimic treatment with an Aromatase Inhibitor (AI). The combination of E2 withdrawal plus palbociclib—reflecting the current standard of care for metastatic breast cancer—was included. Drug concentrations of GDC-0077 and palbociclib were chosen to be clinically relevant, based on human exposures. […] The relative number of viable cells at the 6/8-day timepoint was determined by CyQUANT (ThermoFisher, C7026).

[8] = human steady-state total drug exposure, GDC-9545 versus fulvestrant; type: in vivo; settings: GDC-9545 30 mg QD versus fulvestrant 500 mg IM monthly
[9] = type: in vitro ADME
[10] = tested on: ER, wild-type and ESR1-mutant contexts; test: in vitro cell and biochemical assays, potency versus fulvestrant
ER = molecular target: T1, ER (Homo sapiens, UniProt P03372); test: competition with estrogens for binding to the ER
T1 sequence (P03372 1-595): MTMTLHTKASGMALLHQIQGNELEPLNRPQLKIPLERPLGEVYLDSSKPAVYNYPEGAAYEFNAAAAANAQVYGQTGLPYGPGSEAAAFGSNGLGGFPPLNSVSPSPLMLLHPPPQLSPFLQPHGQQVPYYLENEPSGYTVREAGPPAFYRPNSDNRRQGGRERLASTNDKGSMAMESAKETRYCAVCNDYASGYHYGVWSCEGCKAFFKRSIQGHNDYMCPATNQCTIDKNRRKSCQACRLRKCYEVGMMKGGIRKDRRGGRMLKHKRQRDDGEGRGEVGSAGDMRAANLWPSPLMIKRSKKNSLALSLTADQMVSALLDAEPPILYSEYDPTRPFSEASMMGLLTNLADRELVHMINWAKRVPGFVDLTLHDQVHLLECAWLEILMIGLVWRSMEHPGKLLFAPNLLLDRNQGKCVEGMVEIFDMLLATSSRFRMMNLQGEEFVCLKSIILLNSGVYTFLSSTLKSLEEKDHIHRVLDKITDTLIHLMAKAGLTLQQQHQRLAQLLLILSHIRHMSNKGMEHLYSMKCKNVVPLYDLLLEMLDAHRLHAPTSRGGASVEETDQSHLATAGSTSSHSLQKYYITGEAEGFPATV

oral bioavailability = settings: in vivo
[11] = tested on: ER+ breast cancer models of ESR1-wild type and ESR1-mutation-bearing disease; test: nonclinical activity in ER+ breast cancer models
[12] = tested on: ESR1 wildtype MCF-7 (PIK3CA.E545K) cells; test: CyQUANT relative viability, MCF-7 wildtype ESR1; type: cell-based; settings: 300 nM GDC-9545, 80 nM GDC-0077, alone or combined; 0.1 nmol/L E2; 6 to 8 days
Description: (§1) Cells were treated as shown for 6 to 8 days, and relative viability was assessed. *p<0.0001, parametric t-test.
ESR1 wildtype MCF-7 (PIK3CA.E545K) and T-47D (PIK3CA.H1047R) cells, and engineered ESR1 mutant cells [MCF-7.ER.Y537S, T-47D.ER.D538G] were grown under standard cell culture conditions in RPMI media with 10% fetal bovine serum. One day prior to the addition of drugs, cells were seeded in 384-well plates in phenol red-free RPMI with 10% charcoal-stripped fetal bovine serum in order to deprive the cells of hormones. Single agent 300 nM GDC-9545, 80 nM GDC-0077, 125 nM palbociclib or a combination thereof, were tested in quadruplicate in the presence of 0.1 nmol/L estradiol (E2) during a 6-day or 8-day incubation period. The absence of E2 in the media (−E2) serves to mimic treatment with an Aromatase Inhibitor (AI). The combination of E2 withdrawal plus palbociclib—reflecting the current standard of care for metastatic breast cancer—was included. […] The relative number of viable cells at the 6/8-day timepoint was determined by CyQUANT (ThermoFisher, C7026).

MCF-7.ER.Y537S cells = test: CyQUANT relative viability, MCF-7.ER.Y537S; type: cell-based; settings: 300 nM GDC-9545, 80 nM GDC-0077, alone or combined; 0.1 nmol/L E2; 6 to 8 days
Description: as §1
One day prior to the addition of drugs, cells were seeded in 384-well plates in phenol red-free RPMI with 10% charcoal-stripped fetal bovine serum in order to deprive the cells of hormones. Single agent 300 nM GDC-9545, 80 nM GDC-0077, 125 nM palbociclib or a combination thereof, were tested in quadruplicate in the presence of 0.1 nmol/L estradiol (E2) during a 6-day or 8-day incubation period. The absence of E2 in the media (−E2) serves to mimic treatment with an Aromatase Inhibitor (AI). The combination of E2 withdrawal plus palbociclib—reflecting the current standard of care for metastatic breast cancer—was included. Drug concentrations of GDC-0077 and palbociclib were chosen to be clinically relevant, based on human exposures. 300 nM GDC-9545 is a saturating concentration that is lower than the human dose equivalent of 30 mg. The relative number of viable cells at the 6/8-day timepoint was determined by CyQUANT (ThermoFisher, C7026).

T-47D.ER.D538G cells = test: CyQUANT relative viability, T-47D.ER.D538G; type: cell-based; settings: 300 nM GDC-9545, 80 nM GDC-0077, alone or combined; 0.1 nmol/L E2; 6 to 8 days
Description: as §1

[13] = tested on: ER+ breast cancer xenograft models; test: xenograft models, efficacy versus fulvestrant; type: in vivo; settings: fulvestrant dosed according to a clinically relevant dosing scheme
frontline patients = settings: NCT01602380; cited from earlier work
[14] = 6-mg, 9-mg, or 12-mg QD starting dose, single agent
[15] = CR, PR and/or SD for 24 weeks, RECIST v1.1

Class I alpha isoform of phosphatidylinositol 3-kinase (PI3K-α), sequence (P42336 whole entry, canonical isoform): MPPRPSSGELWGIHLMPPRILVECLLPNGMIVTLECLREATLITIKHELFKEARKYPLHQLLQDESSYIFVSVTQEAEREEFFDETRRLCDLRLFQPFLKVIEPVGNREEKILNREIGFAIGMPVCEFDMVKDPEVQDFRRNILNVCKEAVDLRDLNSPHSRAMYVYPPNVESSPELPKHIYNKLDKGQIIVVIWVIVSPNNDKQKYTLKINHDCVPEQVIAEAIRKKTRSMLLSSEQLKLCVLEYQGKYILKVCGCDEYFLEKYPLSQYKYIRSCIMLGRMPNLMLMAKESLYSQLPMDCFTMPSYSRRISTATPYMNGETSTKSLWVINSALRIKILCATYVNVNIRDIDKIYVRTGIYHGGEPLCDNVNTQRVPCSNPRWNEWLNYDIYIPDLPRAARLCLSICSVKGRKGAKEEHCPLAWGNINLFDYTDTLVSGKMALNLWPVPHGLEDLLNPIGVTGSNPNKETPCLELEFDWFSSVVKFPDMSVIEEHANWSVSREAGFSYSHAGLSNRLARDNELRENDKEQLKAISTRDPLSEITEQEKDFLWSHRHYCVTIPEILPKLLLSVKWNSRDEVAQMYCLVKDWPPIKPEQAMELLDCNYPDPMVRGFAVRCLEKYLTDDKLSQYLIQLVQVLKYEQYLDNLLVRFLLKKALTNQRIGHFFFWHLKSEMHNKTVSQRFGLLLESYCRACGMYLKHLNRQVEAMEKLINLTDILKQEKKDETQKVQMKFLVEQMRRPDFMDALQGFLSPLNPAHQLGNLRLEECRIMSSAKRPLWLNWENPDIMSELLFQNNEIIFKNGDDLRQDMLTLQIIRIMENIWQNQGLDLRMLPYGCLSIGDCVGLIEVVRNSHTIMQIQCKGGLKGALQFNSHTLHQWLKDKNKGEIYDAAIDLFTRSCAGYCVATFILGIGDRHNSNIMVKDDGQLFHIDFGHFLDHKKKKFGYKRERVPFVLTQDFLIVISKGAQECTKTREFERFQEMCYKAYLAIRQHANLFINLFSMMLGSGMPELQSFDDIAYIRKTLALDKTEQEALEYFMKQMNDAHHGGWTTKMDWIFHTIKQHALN
Class I alpha isoform of phosphatidylinositol 3-kinase (PI3K-α), sequence (P27986 whole entry partner, canonical isoform): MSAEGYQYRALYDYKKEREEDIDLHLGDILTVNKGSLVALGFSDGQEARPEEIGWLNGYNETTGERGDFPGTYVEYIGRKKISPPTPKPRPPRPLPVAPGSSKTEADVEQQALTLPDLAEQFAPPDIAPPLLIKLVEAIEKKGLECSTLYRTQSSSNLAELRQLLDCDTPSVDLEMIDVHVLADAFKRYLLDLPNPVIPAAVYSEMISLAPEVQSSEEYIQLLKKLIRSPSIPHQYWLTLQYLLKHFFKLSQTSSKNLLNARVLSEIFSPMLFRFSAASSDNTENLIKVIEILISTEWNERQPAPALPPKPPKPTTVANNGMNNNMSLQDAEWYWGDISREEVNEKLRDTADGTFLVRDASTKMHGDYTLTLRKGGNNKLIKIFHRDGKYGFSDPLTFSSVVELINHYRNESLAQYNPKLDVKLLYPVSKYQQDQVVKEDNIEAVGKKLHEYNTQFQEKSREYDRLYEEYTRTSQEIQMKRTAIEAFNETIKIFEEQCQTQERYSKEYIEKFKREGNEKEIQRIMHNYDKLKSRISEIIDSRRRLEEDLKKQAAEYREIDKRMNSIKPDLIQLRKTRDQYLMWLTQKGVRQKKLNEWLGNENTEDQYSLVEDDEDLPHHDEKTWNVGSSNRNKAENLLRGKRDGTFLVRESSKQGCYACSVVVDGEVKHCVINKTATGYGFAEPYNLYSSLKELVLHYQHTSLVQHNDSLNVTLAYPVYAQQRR

In the case of C[C@H](Nc1ccc2c(c1)OCCn1cc(N3C(=O)OC[C@H]3C(F)F)nc1-2)C(N)=O [GDC-0077, (2S)-2-[[2-[(4S)-4-(Difluoromethyl)-2-oxo-3-oxazolidinyl]-5,6-dihydroimidazo[1,2-d][1,4]benzoxazepin-9-yl]amino]propanamide], the “inhibition of PI3K-α” value [1] is reported as “potent and selective inhibitor”, the “less potent biochemical inhibition of other Class I PI3Ks (selectivity)” value [2] is reported as greater than 300 fold and the “potency in cells bearing mutant p110a over cells bearing wild-type p110a” value [3] is reported as “increased potency”. The apoptosis [4] was “induces apoptosis”, the proliferation [4] was “inhibits proliferation” and the “degradation of mutant p110a” value (mutant p110a) was “specifically degrades mutant p110a”. For the same molecule, the tumor growth [5] was “inhibits tumor growth”, the “downstream PI3K pathway markers pAkt, pPRAS40, pS6RP” value (pAkt, pPRAS40, pS6RP) was “reduces downstream PI3K pathway markers” and the “patients achieving PRs” value [6, 14] was 5 patients. For the same molecule, the “patients achieving PRs, percentage” value [6, 14] was 25%, the “patients achieving clinical benefit” value [6, 15] was 9 patients and the “patients achieving clinical benefit, percentage” value [6, 15] was 45%. The “anti-proliferative effect / relative viability” value [7] was “did not achieve the same anti-proliferative activity as the combination of the agents”.

In the case of C[C@@H]1Cc2c([nH]c3ccccc23)[C@@H](c2c(F)cc(NC3CN(CCCF)C3)cc2F)N1CC(F)(F)CO [GDC-9545], the “human steady-state total drug exposure relative to fulvestrant” value [8] is reported as “approximately 10 fold”, the “plasma protein binding compared with fulvestrant” value [9] is reported as “lower plasma protein binding” and the “potency relative to fulvestrant” value [10] is reported as “up to 10 times”. The “potency of competition with estrogens for binding to the ER” value (ER) was “low nanomolar potency”, the oral bioavailability (oral bioavailability) was “orally bioavailable” and the nonclinical activity [11] was “robust nonclinical activity”. For the same molecule, the “anti-proliferative effect / relative viability” value [12] was “greater impact on cell viability versus estrogen withdrawal”, the “anti-proliferative effect / relative viability” value (MCF-7.ER.Y537S cells) was “reduced cell numbers relative to the control condition” and the “anti-proliferative effect / relative viability” value [7] was “reduced cell proliferation relative to control treated cells; also recorded: did not achieve the same anti-proliferative activity as the combination of the agents”. For the same molecule, the “anti-proliferative effect / relative viability” value (T-47D.ER.D538G cells) was “considerably more impactful than E2 withdrawal”.

In the case of C[C@]12CC[C@@H]3c4ccc(O)cc4C[C@@H](CCCCCCCCC[S+]([O-])CCCC(F)(F)C(F)(F)F)[C@H]3[C@@H]1CC[C@@H]2O (stereo partly shown) [fulvestrant], the “efficacy in xenograft models” value [13] is listed as “less efficacious than GDC-9545” and the “clinical benefit compared with anastrozole” value (frontline patients) is listed as “benefit over anastrozole”.

From patent US20230381155A1, “TREATMENT OF BREAST CANCER USING COMBINATION THERAPIES COMPRISING GDC-9545 AND GDC-0077” (Genentech, Inc., priority 2021, published 2023)
